# According to PubChem BioAssay AID1845203 (Molecular Pharmacology Branch, DTP, NCI, 2023):
# Test system: G-401 tumor spheroids, viability % test/control
# Assay: Anticancer human tumor G-401 cell line growth inhibition;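 note: spheroids exposed to compound for 7 days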;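 for viability, T/C: 100% = DMSO vehicle-treated spheroids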
# Conditions: spheroids with HUVEC and MSC; for IC50: curve of first compound; for viability, T/C: stronger effect = lower value
# Method in brief: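 Complex spheroids of malignant cells with endothelial cells and mesenchymal stem cells; agents alone or combined, from near clinical Cmax (or 10 microM if unknown) down in half-log steps, 0.25% DMSO final.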
# [1] = second compound 1 µM, first compound 0.00949 µM
# [2] = second compound 1 µM, first compound 0.03 µM
# [3] = second compound 1 µM, first compound 0.0949 µM
# [4] = second compound 1 µM, first compound 0.3 µM
# [5] = second compound 1 µM, first compound 0.949 µM
# [6] = second compound 1 µM, first compound 3 µM
# [7] = second compound 3.16 µM, first compound 0.00949 µM
# [8] = second compound 3.16 µM, first compound 0.03 µM
# [9] = second compound 3.16 µM, first compound 0.0949 µM
# [10] = second compound 3.16 µM, first compound 0.3 µM
# [11] = second compound 3.16 µM, first compound 0.949 µM
# [12] = second compound 3.16 µM, first compound 3 µM
# [13] = second compound 10 µM, first compound 0.00949 µM
# [14] = second compound 10 µM, first compound 0.03 µM
# [15] = second compound 10 µM, first compound 0.0949 µM
# [16] = second compound 10 µM, first compound 0.3 µM
# [17] = second compound 10 µM, first compound 0.949 µM
# [18] = second compound 10 µM, first compound 3 µM
# [19] = second compound 31.6 µM, first compound 0.00949 µM
# [20] = second compound 31.6 µM, first compound 0.03 µM
# [21] = second compound 31.6 µM, first compound 0.0949 µM
# [22] = second compound 31.6 µM, first compound 0.3 µM
# [23] = second compound 31.6 µM, first compound 0.949 µM
# [24] = second compound 31.6 µM, first compound 3 µM
# [25] = second compound 100 µM, first compound 0.00949 µM
# [26] = second compound 100 µM, first compound 0.03 µM
# [27] = second compound 100 µM, first compound 0.0949 µM
# [28] = second compound 100 µM, first compound 0.3 µM
# [29] = second compound 100 µM, first compound 0.949 µM
# [30] = second compound 100 µM, first compound 3 µM
SMILES,IC50 (second compound 1 µM),IC50 (second compound 3.16 µM),IC50 (second compound 10 µM),IC50 (second compound 31.6 µM),IC50 (second compound 100 µM),"viability, T/C [3]","viability, T/C [4]","viability, T/C [5]","viability, T/C [6]","viability, T/C [9]","viability, T/C [10]","viability, T/C [11]","viability, T/C [12]","viability, T/C [15]","viability, T/C [16]","viability, T/C [17]","viability, T/C [18]","viability, T/C [21]","viability, T/C [22]","viability, T/C [23]",further results
CNCc1ccc(-c2cc(-c3nc(-c4ccc(S(=O)(=O)C(C)C)cc4)cnc3N)on2)cc1 + Cn1nnc2c(C(N)=O)ncn2c1=O,2010 nM,1780 nM,1060 nM,917 nM,323 nM,106%,106%,72.7%,37.8%,104%,103%,64.1%,38.4%,100%,99.2%,52.5%,25.4%,96.2%,85.1%,49%,"viability, T/C [1]: 105%; viability, T/C [2]: 108%; viability, T/C [7]: 109%; viability, T/C [8]: 105%; viability, T/C [13]: 103%; viability, T/C [14]: 97.6%; viability, T/C [19]: 93.9%; viability, T/C [20]: 94.7%; viability, T/C [24]: 20.4%; viability, T/C [25]: 96.3%; viability, T/C [26]: 98.7%; viability, T/C [27]: 90.4%; viability, T/C [28]: 51.7%; viability, T/C [29]: 27.1%; viability, T/C [30]: 25.7%"
Cc1sc2c(c1C)C(c1ccc(Cl)cc1)=NC(CC(=O)Nc1ccc(O)cc1)c1nnc(C)n1-2 (stereo not given) + Cn1nnc2c(C(N)=O)ncn2c1=O,169 nM,179 nM,163 nM,147 nM,148 nM,67.4%,37.6%,13.4%,10.3%,65.1%,35.6%,19.7%,8.06%,63.5%,38%,20.9%,9.13%,56.1%,34%,20.5%,"viability, T/C [1]: 108%; viability, T/C [2]: 83%; viability, T/C [7]: 93%; viability, T/C [8]: 91.8%; viability, T/C [13]: 101%; viability, T/C [14]: 77.3%; viability, T/C [19]: 84.5%; viability, T/C [20]: 82.6%; viability, T/C [24]: 4.42%; viability, T/C [25]: 102%; viability, T/C [26]: 83%; viability, T/C [27]: 64.8%; viability, T/C [28]: 30.4%; viability, T/C [29]: 11.2%; viability, T/C [30]: 4.09%"
Cn1ncnc1[C@H]1c2n[nH]c(=O)c3cc(F)cc(c23)N[C@@H]1c1ccc(F)cc1 + Cn1nnc2c(C(N)=O)ncn2c1=O,156 nM,57.5 nM,22.2 nM,< 9.49 nM,< 9.49 nM,57.2%,39.6%,23.3%,12.6%,45.3%,30.5%,23.4%,13.2%,32.4%,23.3%,15.7%,10.4%,16.4%,13.9%,10.4%,"viability, T/C [1]: 81.7%; viability, T/C [2]: 73.9%; viability, T/C [7]: 87.8%; viability, T/C [8]: 54.6%; viability, T/C [13]: 63%; viability, T/C [14]: 44.9%; viability, T/C [19]: 35.6%; viability, T/C [20]: 21.3%; viability, T/C [24]: 9.51%; viability, T/C [25]: 14.1%; viability, T/C [26]: 11.6%; viability, T/C [27]: 10.8%; viability, T/C [28]: 10.3%; viability, T/C [29]: 8.87%; viability, T/C [30]: 6.62%"
O=C(c1cc(Cc2n[nH]c(=O)c3ccccc23)ccc1F)N1CCN(C(=O)C2CC2)CC1 + Cn1nnc2c(C(N)=O)ncn2c1=O,12200 nM,8360 nM,5160 nM,2120 nM,402 nM,102%,102%,93.3%,83%,94.4%,96.5%,96.7%,80.4%,91.2%,95%,94.5%,66.7%,91.6%,83.2%,79%,"viability, T/C (second compound 1 µM, first compound 9.49 µM): 54%; viability, T/C (second compound 1 µM, first compound 30 µM): 32.9%; viability, T/C (second compound 3.16 µM, first compound 9.49 µM): 46.6%; viability, T/C (second compound 3.16 µM, first compound 30 µM): 28.3%; viability, T/C (second compound 10 µM, first compound 9.49 µM): 31.3%; viability, T/C (second compound 10 µM, first compound 30 µM): 20.4%; viability, T/C [24]: 37.4%; viability, T/C (second compound 31.6 µM, first compound 9.49 µM): 19.5%; viability, T/C (second compound 31.6 µM, first compound 30 µM): 15.4%; viability, T/C [27]: 65.8%; viability, T/C [28]: 58.1%; viability, T/C [29]: 26.8%; viability, T/C [30]: 17.9%; viability, T/C (second compound 100 µM, first compound 9.49 µM): 14.3%; viability, T/C (second compound 100 µM, first compound 30 µM): 13.3%"
